{"source": "PubChem BioAssay (NCI)", "assay_in_all_cases": "NCI anticancer screen, dose series, 48 h", "key": {"[1]": {"tested_on": "786-0 renal"}, "[2]": {"tested_on": "A498 renal"}, "[3]": {"tested_on": "A549 NSCLC"}, "[4]": {"tested_on": "ACHN renal"}, "[5]": {"tested_on": "BT-549 breast"}, "[6]": {"tested_on": "CCRF-CEM leukemia"}, "[7]": {"tested_on": "COLO 205 colon"}, "[8]": {"tested_on": "DU-145 prostate"}, "[9]": {"tested_on": "EKVX NSCLC"}, "[10]": {"tested_on": "HCC-2998 colon"}, "[11]": {"tested_on": "HCT-116 colon"}, "[12]": {"tested_on": "HCT-15 colon"}, "[13]": {"tested_on": "HL-60(TB) leukemia"}, "[14]": {"tested_on": "HOP-62 NSCLC"}, "[15]": {"tested_on": "HOP-92 NSCLC"}, "[16]": {"tested_on": "HS 578T breast"}, "[17]": {"tested_on": "HT29 colon"}, "[18]": {"tested_on": "IGROV1 ovarian"}, "[19]": {"tested_on": "K-562 leukemia"}, "[20]": {"tested_on": "KM12 colon"}, "[21]": {"tested_on": "LOX IMVI melanoma"}, "[22]": {"tested_on": "M14 melanoma"}, "[23]": {"tested_on": "MALME-3M melanoma"}, "[24]": {"tested_on": "MCF7 breast"}, "[25]": {"tested_on": "MDA-MB-231 breast"}, "[26]": {"tested_on": "MDA-MB-435"}, "[27]": {"tested_on": "MDA-N"}, "[28]": {"tested_on": "MOLT-4 leukemia"}, "[29]": {"tested_on": "NCI-H226 lung"}, "[30]": {"tested_on": "NCI-H23 lung"}, "[31]": {"tested_on": "NCI-H460 lung"}, "[32]": {"tested_on": "NCI-H522 lung"}, "[33]": {"tested_on": "NCI/ADR-RES ovarian"}, "[34]": {"tested_on": "OVCAR-3 ovarian"}, "[35]": {"tested_on": "OVCAR-4 ovarian"}, "[36]": {"tested_on": "OVCAR-5 ovarian"}, "[37]": {"tested_on": "OVCAR-8 ovarian"}, "[38]": {"tested_on": "PC-3 prostate"}, "[39]": {"tested_on": "RPMI-8226 leukemia"}, "[40]": {"tested_on": "RXF 393 renal"}, "[41]": {"tested_on": "SF-268 CNS"}, "[42]": {"tested_on": "SF-295 CNS"}, "[43]": {"tested_on": "SF-539 CNS"}, "[44]": {"tested_on": "SK-MEL-2 melanoma"}, "[45]": {"tested_on": "SK-MEL-28 melanoma"}, "[46]": {"tested_on": "SK-MEL-5 melanoma"}, "[47]": {"tested_on": "SK-OV-3 ovarian"}, "[48]": {"tested_on": "SN12C renal"}, "[49]": {"tested_on": "SNB-19 CNS"}, "[50]": {"tested_on": "SNB-75 CNS"}, "[51]": {"tested_on": "SR leukemia"}, "[52]": {"tested_on": "SW-620 colon"}, "[53]": {"tested_on": "T-47D breast"}, "[54]": {"tested_on": "TK-10 renal"}, "[55]": {"tested_on": "U251 CNS"}, "[56]": {"tested_on": "UACC-257 melanoma"}, "[57]": {"tested_on": "UACC-62 melanoma"}, "[58]": {"tested_on": "UO-31 renal"}}, "note": "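Growth conditions: 96-well plates. Treatment: test compound, 48 hours, 5 concentrations. Analysis: linear interpolation between bracketing concentrations; unreached endpoints set to highest concentration. Definition used: TGI = concentration required for complete inhibition of growth.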", "data": [{"smiles": "COC(=O)C1(Cc2ccccc2)Cc2cc3c(cc2C1=O)CCC3", "note": "(stereo not drawn)", "values": [{"measurement": "TGI", "setting": "[1]", "result": "> 100", "unit": "µM"}, {"measurement": "TGI", "setting": "[2]", "result": 82, "unit": "µM"}, {"measurement": "TGI", "setting": "[3]", "result": "> 100", "unit": "µM"}, {"measurement": "TGI", "setting": "[4]", "result": "> 100", "unit": "µM"}, {"measurement": "TGI", "setting": "[5]", "result": "> 100", "unit": "µM"}, {"measurement": "TGI", "setting": "[6]", "result": 52.9, "unit": "µM"}, {"measurement": "TGI", "setting": "[7]", "result": 39.5, "unit": "µM"}, {"measurement": "TGI", "setting": "[8]", "result": "> 100", "unit": "µM"}, {"measurement": "TGI", "setting": "[9]", "result": 86.1, "unit": "µM"}, {"measurement": "TGI", "setting": "[10]", "result": 9.64, "unit": "µM"}, {"measurement": "TGI", "setting": "[11]", "result": "> 100", "unit": "µM"}, {"measurement": "TGI", "setting": "[12]", "result": "> 100", "unit": "µM"}, {"measurement": "TGI", "setting": "[13]", "result": 36.7, "unit": "µM"}, {"measurement": "TGI", "setting": "[14]", "result": "> 100", "unit": "µM"}, {"measurement": "TGI", "setting": "[15]", "result": 42.3, "unit": "µM"}, {"measurement": "TGI", "setting": "[16]", "result": "> 100", "unit": "µM"}, {"measurement": "TGI", "setting": "[17]", "result": 36, "unit": "µM"}, {"measurement": "TGI", "setting": "[18]", "result": "> 100", "unit": "µM"}, {"measurement": "TGI", "setting": "[19]", "result": 81.8, "unit": "µM"}, {"measurement": "TGI", "setting": "[20]", "result": 81.6, "unit": "µM"}, {"measurement": "TGI", "setting": "[21]", "result": 79.1, "unit": "µM"}, {"measurement": "TGI", "setting": "[22]", "result": 57.6, "unit": "µM"}, {"measurement": "TGI", "setting": "[23]", "result": 56.6, "unit": "µM"}, {"measurement": "TGI", "setting": "[24]", "result": 42.9, "unit": "µM"}, {"measurement": "TGI", "setting": "[25]", "result": "> 100", "unit": "µM"}, {"measurement": "TGI", "setting": "[26]", "result": 36.9, "unit": "µM"}, {"measurement": "TGI", "setting": "[27]", "result": 37.3, "unit": "µM"}, {"measurement": "TGI", "setting": "[28]", "result": 43.1, "unit": "µM"}, {"measurement": "TGI", "setting": "[29]", "result": 92.6, "unit": "µM"}, {"measurement": "TGI", "setting": "[30]", "result": "> 100", "unit": "µM"}, {"measurement": "TGI", "setting": "[31]", "result": 35, "unit": "µM"}, {"measurement": "TGI", "setting": "[32]", "result": 64.2, "unit": "µM"}, {"measurement": "TGI", "setting": "[33]", "result": "> 100", "unit": "µM"}, {"measurement": "TGI", "setting": "[34]", "result": "> 100", "unit": "µM"}, {"measurement": "TGI", "setting": "[35]", "result": "> 100", "unit": "µM"}, {"measurement": "TGI", "setting": "[36]", "result": "> 100", "unit": "µM"}, {"measurement": "TGI", "setting": "[37]", "result": "> 100", "unit": "µM"}, {"measurement": "TGI", "setting": "[38]", "result": "> 100", "unit": "µM"}, {"measurement": "TGI", "setting": "[39]", "result": 52.5, "unit": "µM"}, {"measurement": "TGI", "setting": "[40]", "result": "> 100", "unit": "µM"}, {"measurement": "TGI", "setting": "[41]", "result": "> 100", "unit": "µM"}, {"measurement": "TGI", "setting": "[42]", "result": "> 100", "unit": "µM"}, {"measurement": "TGI", "setting": "[43]", "result": "> 100", "unit": "µM"}, {"measurement": "TGI", "setting": "[44]", "result": 53.1, "unit": "µM"}, {"measurement": "TGI", "setting": "[45]", "result": "> 100", "unit": "µM"}, {"measurement": "TGI", "setting": "[46]", "result": 33, "unit": "µM"}, {"measurement": "TGI", "setting": "[47]", "result": "> 100", "unit": "µM"}, {"measurement": "TGI", "setting": "[48]", "result": "> 100", "unit": "µM"}, {"measurement": "TGI", "setting": "[49]", "result": "> 100", "unit": "µM"}, {"measurement": "TGI", "setting": "[50]", "result": "> 100", "unit": "µM"}, {"measurement": "TGI", "setting": "[51]", "result": 47.2, "unit": "µM"}, {"measurement": "TGI", "setting": "[52]", "result": "> 100", "unit": "µM"}, {"measurement": "TGI", "setting": "[53]", "result": 66.6, "unit": "µM"}, {"measurement": "TGI", "setting": "[54]", "result": "> 100", "unit": "µM"}, {"measurement": "TGI", "setting": "[55]", "result": "> 100", "unit": "µM"}, {"measurement": "TGI", "setting": "[56]", "result": "> 100", "unit": "µM"}, {"measurement": "TGI", "setting": "[57]", "result": "> 100", "unit": "µM"}, {"measurement": "TGI", "setting": "[58]", "result": "> 100", "unit": "µM"}]}]}
